Experimental data: US11891386B2, “Indole compounds and their use” (ARIAGEN, INC., priority 2017, dated 2024)
Read-outs that look alike come from different tables or passages of the source.

Assays:
mouse hepatocytes = test: Hepatocyte intrinsic clearance assay, mouse hepatocytes; format: in vitro ADME; settings: for CLint (μL/min/10^6 ells) / EH (%) hepatic extraction ratio: Mouse Hepatocytes; for CLint (μL/min/10^6 ells): 1 μM test compound; for EH (%) hepatic extraction ratio: well stirred liver model, fu=1
Description: The liver is an important organ in the body for drug metabolism. This Example describes hepatocyte intrinsic clearance assays using both human and mouse hepatocytes to evaluate the metabolic stability of the indole compounds disclosed herein. The parameters measured include t1/2 (half-life), CLint (intrinsic clearance), and EH (hepatic extraction ratio).
Testosterone (Lot FE111011-01) was obtained from Cerilliant (Round Rock, TX). 7-hydroxycoumarin (Lot 11631ED) was obtained from Sigma Aldrich (St. Louis, MO). Cryopreserved human hepatocytes pooled from ten donor males (X008001), cryopreserved male IRC/CD-1 mouse hepatocytes (M005052), INVITROGRO HI Medium (incubation), and INVITROGRO HT Medium (thawing) were obtained from Bioreclamation IVT (Baltimore, MD). All solvents were obtained from commercial sources and used without further purification.
Each test compound was prepared as a 1 mM stock solution in DMSO. A 2 μM solution of test compound and positive controls were prepared in INVITROGRO HI Medium (incubation). These solutions were pre-warmed in a sterile incubator set to maintain 37° C., 5% CO2, and 98% humidity. Cryopreserved hepatocytes were prepared at a concentration of 2×10^6 living cells/mL in incubation media and pre-warmed in the incubator. The compound solutions and hepatocyte mixtures were then combined at a ratio of 1:1 (v:v). The final volume of the reaction mixture was 750 μL, containing 1 μM test compound (10 μM for 7-hydroxycoumarin) and […]. The reaction mixture was placed in the incubator on a plate shaker. After 0, 15, 30, 60, 90, and 120 minutes of incubation, 100 μL of reaction mixtures were removed from the incubation plate and mixed with 150 μL of ice-cold acetonitrile in a designated well of a 96-well crash plate. The 96-well crash plate was placed on ice for 15 min, and samples were centrifuged (3,600 RPM, 10 min, 4° C.) to precipitate protein. The supernatants were diluted 1:1 (v:v) with water containing 0.15 μM verapamil and/or 1 μM tolbutamide (internal standards for positive and negative modes, respectively) in a 96-well shallow injection plate. This plate was sealed for LC-MS analysis. All measurements were done in duplicate.
The residual compound remaining (% R) was determined from LC-MS peak areas by comparison to the zero time point. Metabolic half-life (t1/2) and intrinsic clearance (CLint) values were calculated from the slope of the plot of ln (% R) vs. time and the concentration of hepatocytes present in the incubation. Percent remaining at 60 minutes was calculated by plugging in the 60 minute value into the slope equation generated by the percent remaining time points.
In vivo hepatic clearance CLH was calculated using the well stirred liver model according to the following equation:
[formula] where QH is the total liver blood flow, fu is unbound fraction of the drug, and CL′int is defined as follows: CL′int=CLint×(10^6 cells/g of liver weight)×(g liver weight/kg of body weight). In the first approximation, used in this study, fu=1.
Hepatic extraction ratio EH was calculated using the following equation:
[formula] Corresponding physiological parameters used in calculations for all species are shown below in Table 5.

[1] = system: EMT-6 syngeneic mouse tumor model (breast cancer); test: Anti-tumor activity, EMT-6 syngeneic mouse tumor model; format: in vivo
Description: This example describes in vivo studies that evaluated the anti-cancer efficacy of the disclosed indole compounds in syngeneic mouse tumor models. Mice implanted subcutaneously with four types of cancer cells were treated with test indole compounds or vehicle controls as described below.
A monolayer culture of tumor cells was maintained in vitro in DMEM or RPMI1640 medium supplemented with 10% fetal bovine serum at 37° C. in an atmosphere of 5% CO2. Cells in exponential growth phase were harvested and quantitated by cell counter before tumor inoculation. The cell lines used are described in the table below.
Four subcutaneous syngeneic mouse tumor models were generated by innoculating female BALB/C or C57BL/6 mice with cancer cells at their right lower or front flank as detailed in the table below:
Each mouse was inoculated subcutaneously with tumor cells in 0.1 mL of PBS. Treatments were started when the mean tumor size reached approximately 80-120 mm^3 (around 100 mm^3). The administration of the indole compounds and the animal number in each study group are shown in the study design. The date of tumor cell inoculation was denoted as day 0.
The indole compounds were dissolved in DMSO at the final concentration of 26.7 mg/ml and stored at room temperature.
Randomization of animals was started when the mean tumor size reached approximately 90 mm^3 to form the mouse study groups. The randomization was performed based on “Matched distribution” method using the multi-task method (StudyDirector™ software, version 3.1.399.19)/randomized block design. The mouse groups (ten in each group) were treated with vehicle (DMSO) or the indole compounds at a dose of 40 mg/kg by i.p. injection, QD for 28 days or longer.
After tumor cell inoculation, the mice were checked daily for morbidity and mortality. During routine monitoring, the mice were checked for tumor growth and any effects of the treatment on behavior such as mobility, food and water consumption, body weight gain/loss (body weights were measured twice per week after randomization), eye/hair matting, and any other abnormalities. Mortality and observed clinical signs were recorded for individual mice in detail.
Tumor volumes were measured twice per week in two dimensions using a caliper, and the volume was expressed in mm^3 using the formula: V=(L×W×W)/2, where V is tumor volume, L is tumor length (the longest tumor dimension) and W is tumor width (the longest tumor dimension perpendicular to L). Dosing as well as tumor and body weight measurements was conducted in a Laminar Flow Cabinet. The body weights and tumor volumes were measured by using StudyDirector™ software (version 3.1.399.19). Dosing Holiday
Tumor growth inhibition percentage (TGI %) is an indicator for antitumor activity of a drug compound, and expressed as: TGI (%)=100×(1−T/C), where T and C are the mean tumor volume (or weight) of the treated and control groups, respectively, on a given day. Statistical analysis of the difference in mean tumor volume (MTV) among the groups was conducted using the data collected on the day when the MTV of the vehicle group reached the humane endpoints, so that TGI could be derived for all or most mice enrolled in the study.
In Studies 1 and 3, the anti-tumor activity of ARI-001 in parallel with ARI-002 at 160 mg/kg (mpk), and the anti-tumor activity of ARI-087 in parallel with ARI-002 at 40 mpk were assessed using the EMT-6, Pan02, A20, and LL/2 models. Because EMT-6 provides a fast-growing model that enables relatively quick differentiation of performance between compounds, this syngeneic mouse tumor model was chosen for the other studies. In Study 2, the anti-tumor activity of ARI-002 was compared with that of ARI-004 at 10, 40, and 80 mpk. In Study 4, the anti-tumor activity of ARI-087 was compared with that of ARI-140. In Study 5, the anti-tumor activity of ARI-087 was evaluated in parallel with ARI-143 and ARI-149 at 40 mpk. […]

[2] = Mus musculus, EMT6, ip, 648 h, Study 3, EMT-6, 40 mpk i.p. QD, D27, read-out: TGI (tumor growth inhibition)
[3] = Mus musculus, EMT6, ip, 624 h, Study 6, EMT-6, 40 mpk i.p. QD, D26, read-out: TGI (tumor growth inhibition)

Compound | CLint (μL/min/10^6 ells) (mouse hepatocytes) | EH (%) hepatic extraction ratio (mouse hepatocytes) [%] | further results
COC(=O)c1csc(C(=O)c2c[nH]c3ccccc23)n1 [ARI-001, ITE] | 585.7 μL/min/10^6 ells | 87 | inhibition in vivo at 160 mg/kg ([1]; Mus musculus, EMT6, 648 h, Study 1, EMT-6, 160 mpk, D27, read-out: TGI (tumor growth inhibition)): 53%
CNC(=O)c1csc(C(=O)c2c[nH]c3ccccc23)n1 [ARI-004] | 1,174.2 μL/min/10^6 ells | 93 | inhibition in vivo at 10 mg/kg ([1]; Mus musculus, EMT6, 648 h, Study 2, EMT-6, 10 mpk, D27, read-out: TGI (tumor growth inhibition)): -38.2%; inhibition in vivo at 40 mg/kg ([1]; Mus musculus, EMT6, 648 h, Study 2, EMT-6, 40 mpk, D27, read-out: TGI (tumor growth inhibition)): 0.3%; inhibition in vivo at 80 mg/kg ([1]; Mus musculus, EMT6, 648 h, Study 2, EMT-6, 80 mpk, D27, read-out: TGI (tumor growth inhibition)): 15.8%
Cc1nc(-c2csc(C(=O)c3c[nH]c4ccccc34)n2)no1 [ARI-030, (1H-indol-3-yl)(4-(5-methyl-1,2,4-oxadiazol-3-yl)thiazol-2-yl)methanone] | 40.5 μL/min/10^6 ells | 70 | inhibition in vivo at 40 mg/kg [1, 2]: 21.9%
Cc1noc(-c2csc(C(=O)c3c[nH]c4ccccc34)n2)n1 [ARI-031, (1H-indol-3-yl)(4-(3-methyl-1,2,4-oxadiazol-5-yl)thiazol-2-yl)methanone] | 1.0 μL/min/10^6 ells | 6 | clearance / metabolic profile, in words (mouse hepatocytes; mouse hepatocytes): low clearance
CNC(=O)c1csc(C(=O)c2c[nH]c3ccc(Cl)cc23)n1 [ARI-049, 2-(5-chloro-1H-indole-3-carbonyl)-N-methylthiazole-4-carboxamide] | 7.3 μL/min/10^6 ells | 30 | clearance / metabolic profile, in words (mouse hepatocytes; mouse hepatocytes): lower clearance and EH value
COC(=O)c1csc(C(=O)c2c[nH]c3ccc(Cl)cc23)n1 [ARI-055, methyl 2-(5-chloro-1H-indole-3-carbonyl)thiazole-4-carboxylate] | 5.1 μL/min/10^6 ells | 23 | –
O=C(c1nc(-c2nnco2)cs1)c1c[nH]c2ccccc12 [ARI-056, (4-(1,3,4-oxadiazol-2-yl)thiazol-2-yl)(1H-indol-3-yl)methanone] | 25.8 μL/min/10^6 ells | 60 | anti-tumor potency, in words ([1]; EMT-6 model, 40 mpk): less anti-tumor potency than ARI-087; inhibition in vivo at 40 mg/kg [1, 3]: 34.3%
Cc1nnc(-c2csc(C(=O)c3c[nH]c4ccccc34)n2)o1 [ARI-060, (1H-indol-3-yl)(4-(5-methyl-1,3,4-oxadiazol-2-yl)thiazol-2-yl)methanone] | 5.0 μL/min/10^6 ells | 23 | –
CNC(=O)c1csc(C(=O)c2c[nH]c3ccc(F)cc23)n1 [ARI-065, 2-(5-fluoro-1H-indole-3-carbonyl)-N-methylthiazole-4-carboxamide] | 7.1 μL/min/10^6 ells | 29 | clearance / metabolic profile, in words (mouse hepatocytes; mouse hepatocytes): lower clearance and EH value
COC(=O)c1csc(C(=O)c2c[nH]c3ccc(F)cc23)n1 [ARI-066, methyl 2-(5-fluoro-1H-indole-3-carbonyl)thiazole-4-carboxylate] | 51.9 μL/min/10^6 ells | 75 | –
CCC(=O)c1csc(C(=O)c2c[nH]c3ccc(Cl)cc23)n1 [ARI-067, 1-(2-(5-chloro-1H-indole-3-carbonyl)thiazol-4-yl)propan-1-one] | 3.3 μL/min/10^6 ells | 16 | –
Nc1nnc(-c2csc(C(=O)c3c[nH]c4ccccc34)n2)o1 [ARI-083, (4-(5-amino-1,3,4-oxadiazol-2-yl)thiazol-2-yl)(1H-indol-3-yl)methanone] | 0.7 μL/min/10^6 ells | 4 | clearance / metabolic profile, in words (mouse hepatocytes; mouse hepatocytes): lower clearance and hepatic extraction parameters than ARI-060; inhibition in vivo at 40 mg/kg [1, 2]: 21.2%
CCC(=O)c1csc(C(=O)c2c[nH]c3ccc(F)cc23)n1 [ARI-087, 1-(2-(5-fluoro-1H-indole-3-carbonyl)thiazol-4-yl)propan-1-one] | 6.3 μL/min/10^6 ells | 27 | EH lower as compared to ARI-002, in words (mouse hepatocytes; mouse hepatocytes): three times lower; times lower clearance as compared to ARI-002 (mouse hepatocytes; mouse hepatocytes): 153 times; anti-tumor potency, in words ([1]; EMT-6 model, 40 mpk): better tumor inhibitory activity than parent compound ARI-002; tumor growth and survival, in words ([1]; EMT-6 model, 40 mpk): delayed tumor growth and prolonged survival; complete tumor regression (CR) ([1]; EMT-6 model, Study 4, by day 46): did not result in a CR until day 81; complete tumor regression (CR) ([1]; EMT-6 model, Study 5, by day 51): did not have any animal in CR; animals with tumor volumes<1000 mm^3 ([1]; EMT-6 model, day 27, 40 mpk): 6 out of 10; inhibition in vivo at 40 mg/kg [1, 3]: 52.8%; inhibition in vivo at 40 mg/kg [1, 2]: 56.7%; inhibition in vivo at 40 mg/kg ([1]; Mus musculus, EMT6, ip, 672 h, Study 4, EMT-6, 40 mpk i.p. QD, D28, read-out: TGI (tumor growth inhibition)): 29.5%; inhibition in vivo at 40 mg/kg ([1]; Mus musculus, EMT6, ip, 720 h, Study 5, EMT-6, 40 mpk i.p. QD, D30, read-out: TGI (tumor growth inhibition)): 42.2%
CCC(=O)c1csc(C(=O)c2c[nH]c3cccc(F)c23)n1 [ARI-142, 1-(2-(4-fluoro-1H-indole-3-carbonyl)thiazol-4-yl)propan-1-one] | 11 μL/min/10^6 ells | 38 | –
